Test results published in PMC6803849, “Biodistribution of Nanostructured Lipid Carriers in Mice Atherosclerotic Model” (Molecules, 2019).

Experiments:
Assay in all cases: MMP inhibition assay with fluorogenic substrate
Type in all cases: biochemical
[1] = target: T1, hMMP-10 (Homo sapiens, UniProt P09238)
T1 construct: purchased R&D Systems
Description: (§1) The binding capacity of the RXP470.1 ligand grafted on RXP-NLC surface was first assessed through an inhibition assay in the presence of a fluorogenic substrate. The affinity and selectivity profile of RXP-NLC was determined on a set of eight human MMPs and compared to the parent ligand.
(§2) Affinity and selectivity profile of RXP-NLC were determined toward a set of 8 human MMPs. Human MMP-8, -9, -12, and -13 were produced at CEA in Saclay according to a procedure previously reported. Other MMPs were purchased from R&D Systems (Minneapolis, MN, USA). MMP inhibition assays were carried out in 50 mM Tris-HCl buffer, pH = 6.8, 10 mM CaCl2 at 25 °C as previously described. Pro-MMPs were pre-activated by p-aminophenylmercuric acetate following the method described by R&D Systems. Titration experiments were carried out to determine the active enzyme concentration for each MMP prior to the assay. Continuous kinetic assays were performed by recording the fluorescence increase induced by the cleavage of fluorogenic substrates (Mca-Pro-Leu- Gly-Leu-Dpa-Ala-Arg-NH2 for MMP-1, -2, -7, -8, -9, -10, -12, -13, and -14 and Mca-Arg-Pro-Lys-Pro- Val-Glu- Nva-Trp-Arg-LysDNP-NH2 for MMP-3). A typical experiment was performed in 200 μL of Tris buffer containing 0.2–0.5 nM of MMP, and a 4.5 μM concentration of fluorogenic substrates. Black, flat-bottomed, 96-well non-binding surface plates (Corning-Costar, Schiphol-RijK, Netherlands) were used for these tests. Fluorescence signals were monitored using a Fluoroskan Ascent photon counter spectrophotometer (Thermo-Labsystems, Courtaboeuf, France) equipped with a temperature control device and a plate shaker. […] Ki values were determined using the method proposed by Horovitz and Leviski.

[2] = target: T2, hMMP-12 (Homo sapiens, UniProt P39900)
T2 construct: made in house
T2 sequence (P39900 106-470): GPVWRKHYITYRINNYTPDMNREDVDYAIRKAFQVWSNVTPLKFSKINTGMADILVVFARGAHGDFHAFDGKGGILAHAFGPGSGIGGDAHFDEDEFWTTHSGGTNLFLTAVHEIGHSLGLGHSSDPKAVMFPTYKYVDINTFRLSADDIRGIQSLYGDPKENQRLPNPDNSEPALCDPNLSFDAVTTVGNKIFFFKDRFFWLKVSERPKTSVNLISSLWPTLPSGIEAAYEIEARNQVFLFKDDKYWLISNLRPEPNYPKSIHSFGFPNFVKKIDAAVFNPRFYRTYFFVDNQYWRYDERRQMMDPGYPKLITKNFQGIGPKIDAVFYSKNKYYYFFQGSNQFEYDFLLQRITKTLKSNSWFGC
Description: as §1, §2

[3] = target: T3, hMMP-13 (Homo sapiens, UniProt P45452)
T3 construct: made in house
Description: as §1, §2

[4] = target: T4, hMMP-14 (Homo sapiens, UniProt P50281)
T4 construct: purchased R&D Systems
Description: as §1, §2

[5] = target: T5, hMMP-2 (Homo sapiens, UniProt P08253)
T5 construct: purchased R&D Systems
T5 sequence (P08253 110-660): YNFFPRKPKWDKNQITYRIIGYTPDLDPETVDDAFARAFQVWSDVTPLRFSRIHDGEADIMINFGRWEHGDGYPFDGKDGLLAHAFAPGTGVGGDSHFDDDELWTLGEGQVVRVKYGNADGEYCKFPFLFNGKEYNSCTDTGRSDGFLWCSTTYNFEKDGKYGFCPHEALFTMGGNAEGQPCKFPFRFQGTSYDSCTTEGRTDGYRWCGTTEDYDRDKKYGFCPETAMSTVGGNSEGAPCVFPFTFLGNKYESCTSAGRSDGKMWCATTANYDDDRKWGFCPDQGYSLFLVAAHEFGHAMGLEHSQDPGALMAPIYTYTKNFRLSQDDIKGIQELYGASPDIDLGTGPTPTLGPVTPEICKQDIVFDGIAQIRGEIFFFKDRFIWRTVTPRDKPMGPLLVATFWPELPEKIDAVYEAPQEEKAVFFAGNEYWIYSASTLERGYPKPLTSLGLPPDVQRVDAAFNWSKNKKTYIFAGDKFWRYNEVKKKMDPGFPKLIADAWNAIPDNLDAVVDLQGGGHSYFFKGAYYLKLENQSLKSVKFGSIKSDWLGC
Description: as §1, §2

[6] = target: T6, hMMP-3 (Homo sapiens, UniProt P08254)
T6 construct: purchased R&D Systems
T6 sequence (P08254 100-477): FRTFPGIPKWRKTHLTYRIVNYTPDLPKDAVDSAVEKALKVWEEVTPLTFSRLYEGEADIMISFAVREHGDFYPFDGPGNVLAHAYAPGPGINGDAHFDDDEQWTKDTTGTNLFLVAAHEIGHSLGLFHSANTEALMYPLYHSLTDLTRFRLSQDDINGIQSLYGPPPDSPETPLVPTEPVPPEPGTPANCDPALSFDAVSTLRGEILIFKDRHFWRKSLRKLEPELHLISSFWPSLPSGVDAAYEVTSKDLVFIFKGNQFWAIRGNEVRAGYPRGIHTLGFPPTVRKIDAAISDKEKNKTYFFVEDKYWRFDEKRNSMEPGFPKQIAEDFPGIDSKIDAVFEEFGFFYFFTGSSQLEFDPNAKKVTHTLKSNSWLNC
Description: as §1, §2

[7] = target: T7, hMMP-8 (Homo sapiens, UniProt P22894)
T7 construct: made in house
T7 sequence (P22894 101-467): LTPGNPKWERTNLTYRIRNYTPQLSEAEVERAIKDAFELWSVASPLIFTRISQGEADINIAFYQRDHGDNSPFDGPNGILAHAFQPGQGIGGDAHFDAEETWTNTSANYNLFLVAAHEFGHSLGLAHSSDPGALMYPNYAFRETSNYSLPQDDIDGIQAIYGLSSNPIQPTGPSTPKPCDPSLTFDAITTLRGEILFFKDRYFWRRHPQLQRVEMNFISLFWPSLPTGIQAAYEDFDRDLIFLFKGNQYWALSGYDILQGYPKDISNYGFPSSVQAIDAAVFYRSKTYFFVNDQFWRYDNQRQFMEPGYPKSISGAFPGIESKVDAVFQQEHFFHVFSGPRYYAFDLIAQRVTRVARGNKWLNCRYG
Description: as §1, §2

[8] = target: T8, hMMP-9 (Homo sapiens, UniProt P14780)
T8 construct: made in house
T8 sequence (P14780 94-707): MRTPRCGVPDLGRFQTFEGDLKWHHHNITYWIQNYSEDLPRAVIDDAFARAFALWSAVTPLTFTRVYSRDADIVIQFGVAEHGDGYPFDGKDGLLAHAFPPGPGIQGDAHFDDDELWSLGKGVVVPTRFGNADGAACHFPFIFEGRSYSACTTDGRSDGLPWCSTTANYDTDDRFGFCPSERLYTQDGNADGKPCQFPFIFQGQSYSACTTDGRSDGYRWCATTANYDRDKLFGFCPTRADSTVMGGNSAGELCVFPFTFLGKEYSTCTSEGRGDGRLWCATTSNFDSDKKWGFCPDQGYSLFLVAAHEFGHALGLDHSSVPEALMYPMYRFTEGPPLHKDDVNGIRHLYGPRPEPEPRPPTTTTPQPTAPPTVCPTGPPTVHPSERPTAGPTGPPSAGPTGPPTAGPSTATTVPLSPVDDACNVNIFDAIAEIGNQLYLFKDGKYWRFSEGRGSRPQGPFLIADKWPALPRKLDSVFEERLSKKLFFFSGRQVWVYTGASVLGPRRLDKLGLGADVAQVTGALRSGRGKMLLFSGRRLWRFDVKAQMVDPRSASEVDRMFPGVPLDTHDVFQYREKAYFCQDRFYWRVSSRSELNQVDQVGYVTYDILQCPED
Description: as §1, §2

T1 sequence (P09238 99-476): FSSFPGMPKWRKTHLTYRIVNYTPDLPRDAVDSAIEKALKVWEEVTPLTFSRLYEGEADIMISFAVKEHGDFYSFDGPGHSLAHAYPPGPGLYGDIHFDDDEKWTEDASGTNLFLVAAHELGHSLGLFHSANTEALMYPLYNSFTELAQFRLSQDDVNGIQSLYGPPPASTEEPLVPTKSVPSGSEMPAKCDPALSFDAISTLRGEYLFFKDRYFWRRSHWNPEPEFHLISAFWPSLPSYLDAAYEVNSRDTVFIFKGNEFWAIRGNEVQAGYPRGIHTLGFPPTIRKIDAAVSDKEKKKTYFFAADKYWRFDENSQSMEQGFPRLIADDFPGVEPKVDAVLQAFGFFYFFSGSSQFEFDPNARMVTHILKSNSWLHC

## NC(=O)[C@H](CCC(=O)O)NC(=O)[C@H](CCC(=O)O)NC(=O)[C@H](Cc1cc(-c2ccc(-c3cccc(Cl)c3)cc2)no1)CP(=O)(O)c1ccc(Br)cc1 [RXP470.1]
[1]
  Ki: 17 ± 2 nM
[1]; relative to hMMP12
  Selectivity factor hMMP-10: 65
[2]; 50 mM Tris-HCl buffer, pH 6.8, 10 mM CaCl2, 25 °C, mean ± SD of three independent experiments
  Ki: 0.26 ± 0.05 nM
[2]; relative to hMMP12
  Selectivity factor hMMP-12: 1
[3]
  Ki: 11 ± 1 nM
[3]; relative to hMMP12
  Selectivity factor hMMP-13: 42
[4]
  Ki: 150 ± 21 nM
[4]; relative to hMMP12
  Selectivity factor hMMP-14: 577
[5]
  Ki: 52 ± 4 nM
[5]; relative to hMMP12
  Selectivity factor hMMP-2: 200
[6]
  Ki: 80 ± 2 nM
[6]; relative to hMMP12
  Selectivity factor hMMP-3: 308
[7]
  Ki: 120 ± 40 nM
[7]; relative to hMMP12
  Selectivity factor hMMP-8: 462
[8]
  Ki: 170 ± 50 nM
[8]; relative to hMMP12
  Selectivity factor hMMP-9: 654
